From ChEMBL document CHEMBL4261624, “Resveratrol-maltol hybrids as multi-target-directed agents for Alzheimer's disease” (Bioorg Med Chem, 2018)
pIC50: −log10 of the molar value. Activity calls are given as the source filed them. The rule behind the calls is not given here.

Key:
[1] = target: T1, Amyloid-beta precursor protein (Homo sapiens, UniProt P05067); experiment: Inhibition of HFIP-pretreated amyloid beta (1 to 42) (unknown origin) self-induced aggregation at 20 uM after 24 hrs by thioflavin-T fluorescence assay relative to control
[2] = Antioxidant activity assessed as ABTS radical scavenging activity incubated for 10 mins in dark; format: functional
[3] = target: T1, Amyloid-beta precursor protein; experiment: Inhibition of HFIP-pretreated amyloid beta (1 to 42) (unknown origin) self-induced aggregation after 24 hrs by thioflavin-T fluorescence assay
[4] = Metal chelating activity assessed as inhibition of Cu2+-induced amyloid beta (1 to 42 residues) fibrils at 50 uM after 24 hrs by uranyl acetate staining based transmission electron microscopic analysis
[5] = Metal chelating activity assessed as inhibition of Fe3+-induced amyloid beta (1 to 42 residues) fibrils at 50 uM after 24 hrs by uranyl acetate staining based transmission electron microscopic analysis
[6] = Metal chelating activity assessed as inhibition of Cu2+-induced amyloid beta (1 to 42 residues) fibrils after 24 hrs by thioflavin-T fluorescence assay
[7] = Metal chelating activity assessed as inhibition of Fe3+-induced amyloid beta (1 to 42 residues) fibrils by measuring fluorescence level after 24 hrs by thioflavin-T fluorescence assay; parameters: scale not given: the % may be the effect or the level left
[8] = Metal chelating activity assessed as inhibition of Fe2+-induced amyloid beta (1 to 42 residues) fibrils after 24 hrs by thioflavin-T fluorescence assay
[9] = target: T1, Amyloid-beta precursor protein; experiment: Disaggregation of self-induced amyloid beta (1 to 42) (unknown origin) preformed fibrils at 50 uM after 24 hrs by uranyl acetate staining based transmission electron microscopic analysis
[10] = target: T1, Amyloid-beta precursor protein; experiment: Disaggregation of Fe3+-induced amyloid beta (1 to 42) (unknown origin) preformed fibrils at 75 uM after 24 hrs by uranyl acetate staining based transmission electron microscopic analysis
[11] = target: T1, Amyloid-beta precursor protein; experiment: Disaggregation of Cu2+-induced amyloid beta (1 to 42) (unknown origin) preformed fibrils at 50 uM after 24 hrs by uranyl acetate staining based transmission electron microscopic analysis
[12] = target: T1, Amyloid-beta precursor protein; experiment: Disaggregation of Fe3+-induced amyloid beta (1 to 42) (unknown origin) preformed fibrils assessed as remaining amyloid beta aggregation level at […] after 24 hrs by thioflavin-T fluorescence assay
[13] = target: T1, Amyloid-beta precursor protein; experiment: Disaggregation of Cu2+-induced amyloid beta (1 to 42) (unknown origin) preformed fibrils assessed as remaining amyloid beta aggregation level at […] after 24 hrs by thioflavin-T fluorescence assay
[14] = Metal chelating activity assessed as compound-nitriloacetate Fe3+ complex formation by UV-spectrophotometric analysis

T1 sequence (P05067 whole entry): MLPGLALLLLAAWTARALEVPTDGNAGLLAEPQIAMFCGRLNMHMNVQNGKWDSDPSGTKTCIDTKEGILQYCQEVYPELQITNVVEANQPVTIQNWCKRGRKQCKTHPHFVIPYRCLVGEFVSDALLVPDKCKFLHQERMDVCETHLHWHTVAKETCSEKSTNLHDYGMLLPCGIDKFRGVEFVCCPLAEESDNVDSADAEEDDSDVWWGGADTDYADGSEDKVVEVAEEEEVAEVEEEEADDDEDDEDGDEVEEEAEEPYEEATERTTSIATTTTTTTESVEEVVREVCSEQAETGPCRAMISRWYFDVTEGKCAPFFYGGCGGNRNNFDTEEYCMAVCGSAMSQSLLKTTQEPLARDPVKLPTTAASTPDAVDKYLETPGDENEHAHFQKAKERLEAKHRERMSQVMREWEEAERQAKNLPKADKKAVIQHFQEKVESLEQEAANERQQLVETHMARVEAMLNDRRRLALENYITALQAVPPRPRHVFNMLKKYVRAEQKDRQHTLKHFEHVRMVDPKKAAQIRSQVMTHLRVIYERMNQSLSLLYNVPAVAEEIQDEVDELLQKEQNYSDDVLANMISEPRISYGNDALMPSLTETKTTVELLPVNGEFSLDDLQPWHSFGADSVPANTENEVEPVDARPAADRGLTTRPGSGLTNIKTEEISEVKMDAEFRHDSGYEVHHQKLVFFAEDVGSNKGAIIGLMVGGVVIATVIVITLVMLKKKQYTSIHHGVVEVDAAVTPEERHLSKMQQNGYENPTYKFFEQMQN

Row | inhibition [1] [%] | pIC50 [2] | pIC50 [3] | SMILES | other results
1 | 18.6 | 5.75 | – | COc1cc(/C=C/c2cc(=O)c(O)co2)cc(OC)c1 | –
2 | 61.2 | 5.52 | 5.23 | CN(C)c1ccc(/C=C/c2cc(=O)c(O)co2)cc1 | –
3 | – | 5.41 | – | Cc1c(C)c2c(c(C)c1O)CCC(C)(C(=O)O)O2 (stereo unspecified) [TROLOX] | –
4 | 38.2 | 5.38 | – | CCOc1ccc(/C=C/c2cc(=O)c(O)co2)cc1 | –
5 | 68.5 | 5.71 | 5.14 | O=c1cc(/C=C/c2ccc(O)cc2)occ1O | inhibition [4]: Active; inhibition [5]: Active; inhibition [6]: inactive; Activity [7]: 19%; inhibition [8]: inactive; Activity [9]: Active; Activity [10]: Active; Activity [11]: Active; Activity [12]: 14%; Activity [13]: 68%; Activity [14]: Active
6 | 56.9 | 5.92 | 4.75 | O=c1cc(/C=C/c2cc(O)cc(O)c2)occ1O | –
7 | 63.6 | 5.93 | 5.08 | O=c1cc(/C=C/c2ccccc2O)occ1O | inhibition [4]: Active; inhibition [5]: Active; inhibition [6]: inactive; Activity [7]: 16%; inhibition [8]: inactive; Activity [9]: Active; Activity [10]: Active; Activity [11]: Active; Activity [12]: 17%; Activity [13]: 62%
8 | – | 5.77 | – | O=c1cc(/C=C/c2ccc([N+](=O)[O-])cc2)occ1O | –
9 | 42.5 | 5.65 | – | O=c1cc(/C=C/c2ccccc2)occ1O | –
10 | 58 | 5.46 | 4.75 | O=c1cc(/C=C/c2cccc(F)c2)occ1O | –
11 | 61.1 | 5.46 | 5.10 | COc1ccccc1/C=C/c1cc(=O)c(O)co1 | –
12 | – | 6.12 | – | Oc1ccc(/C=C/c2cc(O)cc(O)c2)cc1 [RESVERATROL] | inhibition [4]: Active; inhibition [5]: Active; Activity [9]: Active; Activity [10]: Active; Activity [11]: Active; Activity [12]: 58%
13 | 18 | 5.71 | – | O=c1cc(/C=C/c2ccc(Cl)cc2)occ1O | –
